# From ChEMBL document CHEMBL1201862, “PubChem BioAssay data set” (2004)
#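 Growth conditions: 96-well plates. Treatment: test compound, 48 hours, 5 concentrations. Analysis: linear interpolation between bracketing concentrations; unreached endpoints set to highest concentration. GI50 = concentration required for 50% inhibition of growth.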 Calls of active or inactive are those of the source. No stated cut-off is given here; in the data, active = GI50 up to about 1.1 µM and inactive = higher.
# Key:
# Assay in all cases: growth of human tumour cells (NCI), 48 h
# 786-0 = tested on: 786-0
# A498 = tested on: A498
# CCRF-CEM = tested on: CCRF-CEM
# EKVX = tested on: EKVX
# HCT-116 = tested on: HCT-116
# HCT-15 = tested on: HCT-15
# HL-60 = tested on: HL-60
# K562 = tested on: K562
# MCF7 = tested on: MCF7
# OVCAR-3 = tested on: OVCAR-3
# OVCAR-4 = tested on: OVCAR-4
# RXF 393 = tested on: RXF 393
# SF-539 = tested on: SF-539
# SK-MEL-28 = tested on: SK-MEL-28
# SNB-19 = tested on: SNB-19
# SW-620 = tested on: SW-620
# UACC-257 = tested on: UACC-257
# UACC-62 = tested on: UACC-62
# UO-31 = tested on: UO-31
SMILES,GI50 (786-0),GI50 (A498),GI50 (CCRF-CEM),GI50 (EKVX),GI50 (HCT-116),GI50 (HCT-15),GI50 (HL-60),GI50 (K562),GI50 (MCF7),GI50 (OVCAR-3),GI50 (OVCAR-4),GI50 (RXF 393),GI50 (SF-539),GI50 (SK-MEL-28),GI50 (SNB-19),GI50 (SW-620),GI50 (UACC-257),GI50 (UACC-62),GI50 (UO-31)
OC1CCN2Cc3ccccc3N=C12 (stereo not given),> 100 µM (inactive),> 100 µM (inactive),> 100 µM (inactive),> 100 µM (inactive),> 100 µM (inactive),> 100 µM,> 100 µM (inactive),> 100 µM (inactive),> 100 µM (inactive),> 100 µM (inactive),> 100 µM (inactive),> 100 µM (inactive),> 100 µM (inactive),> 100 µM (inactive),> 100 µM (inactive),> 100 µM (inactive),> 100 µM (inactive),> 100 µM (inactive),> 100 µM (inactive)
N=C(N)NC(=N)Nc1ccc(S(N)(=O)=O)cc1,> 100 µM (inactive),> 100 µM (inactive),> 100 µM (inactive),> 100 µM (inactive),> 100 µM (inactive),> 100 µM,> 100 µM (inactive),> 100 µM (inactive),> 100 µM (inactive),> 100 µM (inactive),> 100 µM (inactive),> 100 µM (inactive),> 100 µM (inactive),> 100 µM (inactive),> 100 µM (inactive),> 100 µM (inactive),> 100 µM (inactive),> 100 µM (inactive),> 100 µM (inactive)
C[N+](C)(C)CC(=O)N/N=C\c1c(O)ccc2ccccc12,37.8 µM (inactive),29.5 µM (inactive),27.8 µM (inactive),35.7 µM (inactive),42.6 µM (inactive),27.7 µM,14.2 µM (inactive),31.9 µM (inactive),59.7 µM (inactive),35.9 µM (inactive),32.2 µM (inactive),20.9 µM (inactive),31.5 µM (inactive),48.2 µM (inactive),63.4 µM (inactive),63.5 µM (inactive),18.7 µM (inactive),28.2 µM (inactive),33.3 µM (inactive)
O=C(Nc1sccc1S(=O)(=O)c1ccc(Cl)cc1)c1ccc(Cl)cc1,52.7 µM (inactive),> 100 µM (inactive),> 100 µM (inactive),31 µM (inactive),> 100 µM (inactive),> 100 µM,> 100 µM (inactive),> 100 µM (inactive),99.8 µM (inactive),> 100 µM (inactive),25.6 µM (inactive),65.6 µM (inactive),39.9 µM (inactive),> 100 µM (inactive),44.2 µM (inactive),> 100 µM (inactive),> 100 µM (inactive),> 100 µM (inactive),86.3 µM (inactive)
CC(C)(C)c1cc(C(C)(C)C)c(SS(=O)(=O)O)c(O)c1O,63.7 µM (inactive),54.7 µM (inactive),49 µM (inactive),62.1 µM (inactive),33 µM (inactive),48.3 µM,65.6 µM (inactive),0.246 µM (active),36.3 µM (inactive),34.1 µM (inactive),28.9 µM (inactive),28.2 µM (inactive),15.1 µM (inactive),81.8 µM (inactive),46.8 µM (inactive),51.4 µM (inactive),79.1 µM (inactive),21.5 µM (inactive),> 100 µM (inactive)
Ic1cccc(/C=C/CN2CCN(CCOC(c3ccccc3)c3ccccc3)CC2)c1,15.7 µM (inactive),16.7 µM (inactive),6.5 µM (inactive),17.7 µM (inactive),12.6 µM (inactive),14.2 µM,8.91 µM (inactive),4.62 µM (inactive),14.6 µM (inactive),16.7 µM (inactive),17.5 µM (inactive),10.7 µM (inactive),17.3 µM (inactive),20.8 µM (inactive),16.3 µM (inactive),26.7 µM (inactive),15.7 µM (inactive),18.6 µM (inactive),13 µM (inactive)
COc1ccc(OC)c2c1C=C[C@H](C1(C)SCCS1)C2C(C)=O (stereo not given in full),31.7 µM (inactive),26 µM (inactive),27.7 µM (inactive),41.1 µM (inactive),23 µM (inactive),33.1 µM,18.2 µM (inactive),32.7 µM (inactive),35.4 µM (inactive),29.3 µM (inactive),42.5 µM (inactive),29.4 µM (inactive),23.1 µM (inactive),24.8 µM (inactive),27.4 µM (inactive),33.1 µM (inactive),35.6 µM (inactive),20.8 µM (inactive),24.2 µM (inactive)
COc1ccc(C2=C3SC=c4ccccc4=C3ON=C2c2ccccc2)cc1,> 100 µM (inactive),> 100 µM (inactive),84.3 µM (inactive),> 100 µM (inactive),57.4 µM (inactive),> 100 µM,> 100 µM (inactive),22.9 µM (inactive),> 100 µM (inactive),94.8 µM (inactive),> 100 µM (inactive),> 100 µM (inactive),> 100 µM (inactive),> 100 µM (inactive),> 100 µM (inactive),> 100 µM (inactive),> 100 µM (inactive),> 100 µM (inactive),> 100 µM (inactive)
O=C(C(Cl)=C(N1CCCCC1)N1CCCCC1)C(Cl)Cl,> 100 µM (inactive),> 100 µM (inactive),> 100 µM (inactive),> 100 µM (inactive),> 100 µM (inactive),> 100 µM,> 100 µM (inactive),> 100 µM (inactive),> 100 µM (inactive),> 100 µM (inactive),> 100 µM (inactive),> 100 µM (inactive),> 100 µM (inactive),> 100 µM (inactive),> 100 µM (inactive),> 100 µM (inactive),> 100 µM (inactive),> 100 µM (inactive),> 100 µM (inactive)
CC1(C)OC2C(O)C(CO)OC2(C(F)F)O1 (stereo not given),> 100 µM (inactive),> 100 µM (inactive),> 100 µM (inactive),> 100 µM (inactive),> 100 µM (inactive),> 100 µM,> 100 µM (inactive),> 100 µM (inactive),> 100 µM (inactive),> 100 µM (inactive),> 100 µM (inactive),> 100 µM (inactive),> 100 µM (inactive),> 100 µM (inactive),> 47.1 µM (inactive),> 100 µM (inactive),> 100 µM (inactive),> 100 µM (inactive),> 31.3 µM (inactive)
CNC(=S)NN=C1NCCCCN1,> 100 µM (inactive),> 100 µM (inactive),> 100 µM (inactive),> 100 µM (inactive),> 100 µM (inactive),> 100 µM,> 100 µM (inactive),> 100 µM (inactive),> 100 µM (inactive),> 100 µM (inactive),> 100 µM (inactive),> 100 µM (inactive),> 100 µM (inactive),> 100 µM (inactive),> 100 µM (inactive),> 100 µM (inactive),> 100 µM (inactive),> 100 µM (inactive),> 100 µM (inactive)
COc1cc2c3c(cc(Cl)nc3c1OC)C(O)(CC(C)=O)C(=O)N2 (stereo not given),17.1 µM (inactive),18.3 µM (inactive),9.18 µM (inactive),16.2 µM (inactive),17.3 µM (inactive),> 43.4 µM,6.79 µM (inactive),18.5 µM (inactive),16 µM (inactive),33 µM (inactive),17.8 µM (inactive),16.3 µM (inactive),> 100 µM (inactive),> 45.4 µM (inactive),> 40.3 µM (inactive),27.4 µM (inactive),8 µM (inactive),16.6 µM (inactive),23.2 µM (inactive)
CC(C)=CCC[C@]1(C)C=Cc2c(O)c3c(c(CC=C(C)C)c2O1)O[C@]12C(=C[C@@H]4CC1C(C)(C)O[C@@]2(C/C=C(/C)C(=O)O)C4=O)C3=O,0.488 µM (active),1.73 µM (inactive),0.273 µM (active),1.67 µM (inactive),0.256 µM (active),0.813 µM,0.285 µM (active),0.676 µM (active),0.376 µM (active),1.38 µM (inactive),2.38 µM (inactive),0.5 µM (active),0.206 µM (active),1.28 µM (inactive),2.12 µM (inactive),0.452 µM (active),2.31 µM (inactive),1.73 µM (inactive),1.33 µM (inactive)
Cc1cc(C)c2c(c1)C1=NCCN1C2(O)c1ccc(Cl)cc1 (stereo not given),16.1 µM (inactive),15.2 µM (inactive),17.2 µM (inactive),16.1 µM (inactive),13.3 µM (inactive),17.2 µM,19.9 µM (inactive),19.1 µM (inactive),18 µM (inactive),15.5 µM (inactive),15.5 µM (inactive),13.6 µM (inactive),15.3 µM (inactive),16.8 µM (inactive),16.2 µM (inactive),15.6 µM (inactive),17.1 µM (inactive),15.9 µM (inactive),13.9 µM (inactive)
C=C1C(=O)O[C@@H]2C[C@@H]3[C@]4(CC[C@]5(C)[C@@H]([C@H](C)CC/C=C(\C)C=O)CC[C@@]35C)C[C@]4(CCC(=O)OC)[C@H]12,1.71 µM (inactive),2.79 µM (inactive),0.222 µM (active),2.99 µM (inactive),0.771 µM (active),1.78 µM,0.367 µM (active),0.845 µM (active),1.46 µM (inactive),1.62 µM (inactive),1.7 µM (inactive),1.89 µM (inactive),2 µM (inactive),2 µM (inactive),1.97 µM (inactive),1.72 µM (inactive),0.454 µM (active),1.56 µM (inactive),2 µM (inactive)
